{
  "source": "paper PMC9246774",
  "about": "“Construction and Functional Evaluation of a Three-Dimensional Blood–Brain Barrier Model Equipped With Human Induced Pluripotent Stem Cell-Derived Brain Microvascular Endothelial Cells” (Pharmaceutical Research, 2022)",
  "key": {"MCTs": {"test_system": "MCTs", "test": "Inhibition of H+-gradient-promoted [14C] L-lactate transport in the 3D-BBB system", "assay_type": "cell-based, human", "conditions": "20 nM AZD3965; one lane pH 6.0, opposite lane pH 7.4", "procedure": "Permeability experiments were performed on day 10, at 48 h after seeding hiPS-BMECs on the plate. After removal of the medium in the capillary channels, the assay buffer (pH 7.4) was added to both sides of the capillary and brain channels and preincubated on the OrganoFlow® for 30 min. The assay buffer containing test drugs was added to the donor side to initiate the assay, and the plate was then incubated on the OrganoFlow® at 37°C for the designated times. Transporter inhibitors were added to both the donor and receiver sides at the start of preincubation. In all permeability experiments, the amount of lucifer yellow transported through the paracellular pathway to the receiver side was measured with a SpectraMax i3x (Molecular Devices, San Jose, CA) as a measure of cell-to-cell tightness. […] The apparent permeability coefficient (Papp) was calculated as follows: Papp=(dQ/dt)/D0×S\nOn day 10, remove the medium in the capillary lane of the 3D-BBB system. After removal, 100 µL of assay buffer (50 µL in each Well ➀, ②, ⑤ and ⑥) was added to the capillary and brain lane for washing. […] At 3.5 hr after the start of permeability experiment, the transport amount of lucifer yellow on the receiver side was measured to check for leakage, and all donor and receiver were collected at 4 hr."}, "[1]": {"test": "Permeability experiments in the 3D-BBB system (hiPS-BMECs on OrganoPlate 3-lane)", "conditions": "human", "protocol": "(§1) The 3D-BBB system using the OrganoPlate® 3-lane plate was constructed with some modifications to the protocol published by MIMETAS. During the differentiation of hiPS-BMECs, to separate the capillary side from the brain side, extracellular matrix hydrogel composed of 4 mg/mL collagen I (Cultrex 3D Matrix Rat Collagen-I, 5 mg/mL, AMSbio), 100 mM HEPES, and 3.7 mg/mL NaHCO3 was dispensed into the middle lane. The plate was incubated at 37°C for 15 min to polymerize collagen I. After incubation, HBSS (+) without phenol red (Fujifilm Wako) was added to the gel channel to prevent the gel from drying out. […] The suspension was injected into capillary lanes precoated with fibronectin/collagen IV solution (PharmCo-Cell). After seeding the cells, the plate was incubated for 4 h at a tilt to allow the cells to adhere to the gel. After incubation, the medium was added to the capillary channels and the plate was placed on an OrganoFlow® (MIMETAS), switching between a + 7° and − 7° inclination every 8 min to create a bidirectional flow mimicking blood flow. On day 9, the medium in the capillary channels was replaced with fresh ESFM + 1% hPDS containing 10 μM MMP inhibitor.\n(§2) Permeability experiments were performed on day 10, at 48 h after seeding hiPS-BMECs on the plate. […] The assay buffer containing test drugs was added to the donor side to initiate the assay, and the plate was then incubated on the OrganoFlow® at 37°C for the designated times. Transporter inhibitors were added to both the donor and receiver sides at the start of preincubation. In all permeability experiments, the amount of lucifer yellow transported through the paracellular pathway to the receiver side was measured with a SpectraMax i3x (Molecular Devices, San Jose, CA) as a measure of cell-to-cell tightness. The protocol for the permeability experiments, including the composition of the assay buffer, is described in detail in the Supplementary Material. The apparent permeability coefficient (Papp) was calculated as follows: Papp=(dQ/dt)/D0×S\n(§3) where dQ/dt, D0, and S are the transport velocity of the test drugs, the initial concentration of test drugs on the donor side, and the surface area of the extracellular matrix hydrogel in the middle lane, respectively. The efflux ratio value was calculated from the Papp value in the capillary-to-brain (A-to-B) and brain-to-capillary (B-to-A) directions as follows: Effluxratio=Papp,B-to-A/Papp,A-to-B.\n(§4) The test drugs were quantified using a high-performance liquid chromatography (HPLC)-tandem mass spectrometry system composed of a Nexera-XR (Shimazu, Kyoto, Japan) HPLC system connected to a Qtrap4500 (AB Sciex, Foster City, CA, USA) mass spectrometer with an electrospray ionization interface.\n(§5) On day 10, remove the medium in the capillary lane of the 3D-BBB system. After removal, 100 µL of assay buffer (50 µL in each Well ➀, ②, ⑤ and ⑥) was added to the capillary and brain lane for washing. After 30 min for washing, 100 µL of a fresh assay buffer containing the drug was added to the donor side (A-to-B direction; 50 µL in each Well ➀ and ②, B-to-A direction; 50 µL in each Well ⑤ and ⑥). In addition, 100 µL of a fresh assay buffer was added to the receiver side (A-to-B direction; 50 µL in each Well ⑤ and ⑥, B-to-A direction; 50 µL in each Well ➀ and ②). Inhibitors were added on both sides of the donor and receiver to avoid a gradient in concentration. At the designed sampling time, 50 µL of assay buffer was collected from the receiver side (A-to-B direction; 25 µL in each Well ⑤ and ⑥, B-to-A direction; 25 µL in each Well ➀ and ②), and 50 µL of a fresh assay buffer was added."}, "[2]": {"test": "Permeability in the hydrogel without hiPS-BMECs (OrganoPlate 3-lane)", "assay_type": "in vitro ADME", "conditions": "pH 7.4, upper limit of the system, data not shown"}, "BCRP": {"test_system": "BCRP", "test": "Permeability experiments in the 3D-BBB system (hiPS-BMECs on OrganoPlate 3-lane)", "conditions": "human, pH 7.4, with Ko143 1 µM (BCRP inhibitor), Efflux ratio (B-to-A/A-to-B), + 1 μM Ko143 (BCRP inhibitor)", "protocol": "as §1, §2, §3, §4, §5"}, "hiPS-BMECs [3]": {"test_system": "hiPS-BMECs", "test": "Permeability experiments in the 3D-BBB system (hiPS-BMECs on OrganoPlate 3-lane)", "protocol": "as §1, §2, §3, §4, §5"}, "[4]": {"test_system": "monkey in vitro BBB model", "design": "method as in PMID 34575559", "conditions": "cited from earlier work"}, "human BBB": {"test_system": "human BBB", "design": "method as in PMID 24947467", "conditions": "prediction for human BBB; cited from earlier work"}, "hiPS-BMECs [5]": {"test_system": "hiPS-BMECs", "conditions": "cited from earlier work"}, "[6]": {"conditions": "pH 7.4, Efflux ratio (B-to-A/A-to-B), Control"}},
  "data": [
    {"compound": "Cc1[nH]nc(C(F)(F)F)c1Cc1sc2c(c1C(=O)N1C[C@](C)(O)CO1)c(=O)n(C)c(=O)n2C(C)C", "note": "[AZD3965]", "values": [
      {"measurement": "Reduction of [14C] L-lactate transport promoted by the H+-gradient", "setting": "MCTs", "value": "approximately 60%"}
    ]},
    {"compound": "Cc1cc(=O)n(-c2ccccc2)n1C", "note": "[Antipyrine]", "values": [
      {"measurement": "Papp A→B at 4 h", "setting": "[1]; pH 7.4", "value": 33.4, "unit": "×10⁻⁶ cm/s"},
      {"measurement": "Papp B→A at 4 h", "setting": "[1]; pH 7.4", "value": 35.1, "unit": "×10⁻⁶ cm/s"},
      {"measurement": "efflux ratio at 4 h", "setting": "[1]; [6]", "value": 1.05},
      {"measurement": "Papp at 4 h", "setting": "[2]", "value": 59.2, "unit": "×10⁻⁶ cm/s"}
    ]},
    {"compound": "Nc1nc(Cl)nc2c1ncn2[C@H]1C[C@H](O)[C@@H](CO)O1", "note": "[Cladribine]", "values": [
      {"measurement": "Papp A→B at 4 h", "setting": "[1]; pH 7.4", "value": 2.69, "unit": "×10⁻⁶ cm/s"},
      {"measurement": "Papp B→A at 4 h", "setting": "[1]; pH 7.4", "value": 15.1, "unit": "×10⁻⁶ cm/s"},
      {"measurement": "efflux ratio at 4 h", "setting": "[1]; [6]", "value": 5.6},
      {"measurement": "efflux ratio at 4 h", "setting": "BCRP", "value": 1.45},
      {"measurement": "Efflux ratio (B-to-A/A-to-B)", "setting": "hiPS-BMECs [3]; Control", "value": 5.61}
    ]},
    {"compound": "NCC1(CC(=O)O)CCCCC1", "note": "[Gabapentin]", "values": [
      {"measurement": "Papp A→B at 4 h", "setting": "[1]; pH 7.4", "value": 16, "unit": "×10⁻⁶ cm/s"},
      {"measurement": "Papp B→A at 4 h", "setting": "[1]; pH 7.4", "value": 6.4, "unit": "×10⁻⁶ cm/s"},
      {"measurement": "efflux ratio at 4 h", "setting": "[1]; pH 7.4", "value": 0.401}
    ]},
    {"compound": "C=C[C@H]1C[N@@]2CC[C@H]1C[C@@H]2[C@@H](O)c1ccnc2ccc(OC)cc12", "note": "[Quinidine]", "values": [
      {"measurement": "Papp A→B at 4 h", "setting": "[1]; pH 7.4", "value": 21.6, "unit": "×10⁻⁶ cm/s"},
      {"measurement": "Papp B→A at 4 h", "setting": "[1]; pH 7.4", "value": 22.8, "unit": "×10⁻⁶ cm/s"},
      {"measurement": "efflux ratio at 4 h", "setting": "[1]; [6]", "value": 1.06},
      {"measurement": "Efflux ratio", "setting": "[4]", "value": "approximately 1.7"},
      {"measurement": "Efflux ratio", "setting": "human BBB", "value": "~13.4"}
    ]},
    {"compound": "NC(N)=NCCC[C@H](N)C(=O)O", "note": "[[^3H] L-Arginine, Arginine, L-[2,3,4-^3H]]", "values": [
      {"measurement": "Efflux ratio (B-to-A/A-to-B)", "setting": "hiPS-BMECs [3]; Control", "value": 0.410},
      {"measurement": "Papp B-to-A", "setting": "hiPS-BMECs [3]; Control, brain-to-capillary, pH 7.4", "value": "5.77 × 10^–6 cm/s"},
      {"measurement": "Papp A-to-B", "setting": "hiPS-BMECs [3]; Control, capillary-to-brain, pH 7.4", "value": "14.1 × 10^–6 cm/s"}
    ]},
    {"compound": "[14CH3][14CH](O)[14C](=O)[O-].[Na+]", "note": "[[^14C] L-Lactate, Lactic acid sodium salt, L-[^14C(U)]]", "values": [
      {"measurement": "Efflux ratio (B-to-A/A-to-B)", "setting": "hiPS-BMECs [3]; A: pH 6.0—B: pH 7.4", "value": 0.257},
      {"measurement": "Papp A-to-B", "setting": "hiPS-BMECs [3]; A: pH 6.0—B: pH 7.4", "value": "34.1 × 10^–6 cm/s"},
      {"measurement": "Papp B-to-A", "setting": "hiPS-BMECs [3]; A: pH 6.0—B: pH 7.4", "value": "8.74 × 10^–6 cm/s"},
      {"measurement": "Papp A-to-B", "setting": "hiPS-BMECs [3]; A: pH 6.0—B: pH 7.4, + 20 nM AZD3965", "value": "12.0 × 10^–6 cm/s"},
      {"measurement": "Efflux ratio (B-to-A/A-to-B)", "setting": "hiPS-BMECs [3]; A: pH 7.4—B: pH 6.0", "value": 3.07},
      {"measurement": "Papp A-to-B", "setting": "hiPS-BMECs [3]; A: pH 7.4—B: pH 6.0", "value": "7.68 × 10^–6 cm/s"},
      {"measurement": "Papp B-to-A", "setting": "hiPS-BMECs [3]; A: pH 7.4—B: pH 6.0", "value": "23.6 × 10^–6 cm/s"},
      {"measurement": "Papp B-to-A", "setting": "hiPS-BMECs [3]; A: pH 7.4—B: pH 6.0, + 20 nM AZD3965", "value": "9.60 × 10^–6 cm/s"},
      {"measurement": "Efflux ratio (B-to-A/A-to-B)", "setting": "hiPS-BMECs [3]; A: pH 7.4—B: pH 7.4", "value": 0.944},
      {"measurement": "Papp A-to-B", "setting": "hiPS-BMECs [3]; A: pH 7.4—B: pH 7.4", "value": "19.1 × 10^–6 cm/s"},
      {"measurement": "Papp B-to-A", "setting": "hiPS-BMECs [3]; A: pH 7.4—B: pH 7.4", "value": "18.1 × 10^–6 cm/s"}
    ]},
    {"compound": "lucifer yellow", "values": [
      {"measurement": "Block of leakage by hiPS-BMECs", "setting": "hiPS-BMECs [3]", "value": "more than 99%"},
      {"measurement": "Papp in 2D culture of hiPS-BMECs", "setting": "hiPS-BMECs [5]", "value": "0.0845 × 10^–6 cm/s"}
    ]}
  ]
}
